Test results published in patent EP0600950B1, “AMIDE TETRAZOLE ACAT INHIBITORS” (priority 1991, dated 1993).

Target: acyl-CoA: cholesterol acyltransferase (ACAT)
Assay: in vitro ACAT inhibition, rabbit intestinal microsomes (IAI)
Format: biochemical
Conditions: radiolabeled cholesterol oleate formed from radiolabeled oleic acid
Excerpt: The test assesses the ability of a test compound to inhibit the acylation of cholesterol by oleic acid by measuring the amount of radiolabeled cholesterol oleate formed from radiolabeled oleic acid in a tissue preparation containing rabbit intestinal microsomes (designated IAI) or from rat liver microsomes (designated LAI).

Point of comparison: `CCCCCCCCCCCCn1nnnc1CC(=O)Nc1c(OC)cc(OC)cc1OC` [Example 6, 1-dodecyl-N-(2,4,6-trimethoxyphenyl)-1H-tetrazole-5-acetamide], IC50 120 nM. Against it:
- CCCCCCCCCCCCn1nnc(CCC(=O)Nc2ccc(F)cc2F)n1 [Example 36, N-(2,4-Difluorophenyl)-2-dodecyl-2H-tetrazole-5-propanamide] — higher, > 5000 nM
- CCCCCCCCCCCCCn1nnc(C(C)(C)C(=O)Nc2c(OC)cc(OC)cc2OC)n1 [Example 33, 2-Tridecyl-α,α-dimethyl-N-(2,4,6-trimethoxyphenyl)-2H-tetrazole-5-acetamide] — 7.1-fold lower, 17 nM
- CCCCCCCCCCCCn1nnc(C(C)(C(=O)Nc2c(OC)cc(OC)cc2OC)c2ccccc2)n1 (racemic) [Example 44, (±)-2-Dodecyl-α-methyl-α-phenyl-N-(2,4,6-trimethoxyphenyl)-2H-tetrazole-5-acetamide] — 4.1-fold lower, 29 nM
- CCCCCCCCCCCCn1nnc(C(C(=O)Nc2c(C(C)C)cccc2C(C)C)c2ccccc2)n1 (racemic) [Example 15, (±)-N-[2,6-bis(1-methylethyl)phenyl]-2-dodecyl-α-phenyl-2H-tetrazole-5-acetamide] — 15-fold lower, 8 nM
- CCCCCCCCCCCCn1nnc(CCC(=O)Nc2c(C(C)C)cccc2C(C)C)n1 [Example 35, N-(2,6-Bis(1-methylethyl)phenyl)-2-dodecyl-2H-tetrazole-5-propanamide] — 13-fold lower, 9 nM
- CCCCCCCCCCCCn1nnc(CC(=O)Nc2ccc(F)cc2F)n1 [Example 9, N-(2,4-difluoro-phenyl)-2-dodecyl-2H-tetrazole-5-acetamide] — 2.3-fold higher, 280 nM
- CCCCCCCCCCCCn1nnc(C(C)(C)C(=O)Nc2c(OC)cc(OC)cc2OC)n1 [Example 27, 2-Dodecyl-α,α-dimethyl-N-(2,4,6-trimethoxyphenyl)-2H-tetrazole-5-acetamide] — 8.6-fold lower, 14 nM
- CCCCCCCCCCCCCCn1nnc(CCC(=O)Nc2c(OC)cc(OC)cc2OC)n1 [Example 47, 2-tetradecyl-N-(2,4,6-tri-methoxyphenyl)-2H-tetrazole-5-propanamide] — 18-fold higher, 2100 nM
- CCCCCCCCCCCCn1nnc(C(C(=O)Nc2ccc(F)cc2F)c2ccccc2)n1 (racemic) [Example 21, (±)-N-(2,4-difluoro-phenyl)-2-dodecyl-α-phenyl-2H-tetrazole-5-acetamide] — 8-fold lower, 15 nM
- CCCCCCCCCCCCn1nnc(C(C(=O)Nc2ccccc2)c2ccccc2)n1 (racemic) [Example 14, (±)-2-dodecyl-N,α-diphenyl-2H-tetrazole-5-acetamide] — within 1.5-fold, 91 nM
- CCCCCCCCCCCCn1nnc(C(C(=O)Nc2c(C)nn(C)c2C)c2ccccc2)n1 (racemic) [Example 19, (±)-2-dodecyl-α-phenyl-N-(1,3,5-trimethyl-1H-pyrazol-4-yl)-2H-tetrazole-5-acetamide] — 8.6-fold lower, 14 nM
- CCCCCCCCCCCCn1nnc(C(C(=O)Nc2c(OC)cc(OC)cc2OC)c2ccccc2)n1 (single isomer, unassigned; (-)) [Example 61, (-)-2-Dodecyl-α-phenyl-N-(2,4,6-trimethoxy-phenyl)-2H-tetrazole-5-acetamide] — 2.6-fold higher, 310 nM
- CCCCCCCCCCCCn1nnc(C(C(=O)Nc2c(OC)cc(OC)cc2OC)c2ccc(N(C)C)cc2)n1 (racemic) [Example 51, (±)-α-[4-dimethylamino)phenyl]-2-dodecyl-N-(2,4,6-trimethoxy-phenyl)-2H-tetrazole-5-acetamide] — 5.5-fold higher, 660 nM
- CCCCCCCCCCCCCCn1nnc(CC(=O)Nc2c(OC)cc(OC)cc2OC)n1 [Example 49, 2-tetradecyl-N-(2,4,6-tri-methoxyphenyl)-2H-tetrazole-5-acetamide] — 8-fold lower, 15 nM
- CCCCCCCCCCCCn1nnc(C(C(=O)Nc2c(OC)cc(OC)cc2OC)c2ccccc2)n1 (single isomer, unassigned; (+)) [Example 62, (+)-2-Dodecyl-α-phenyl-N-(2,4,6-trimethoxy-phenyl)-2H-tetrazole-5-acetamide] — 8.6-fold lower, 14 nM
- CCCCCCCCCCCCn1nnc(C2(C(=O)Nc3c(OC)cc(OC)cc3OC)CCCC2)n1 [Example 29, 1-(2-Dodecyl-2H-tetrazol-5-yl)-N-(2,4,6-trimethoxyphenyl)cyclopentanecarboxamide] — 12-fold lower, 10 nM
- CCCCCCCCCCCCCCn1nnnc1CC(=O)Nc1c(OC)cc(OC)cc1OC [Example 50, 1-tetradecyl-N-(2,4,6-tri-methoxyphenyl)-1H-tetrazole-5-acetamide] — 8.3-fold higher, 1000 nM
- CCCCCCCCCCCCn1nnc(CC(=O)Nc2c(C(C)C)cccc2C(C)C)n1 [Example 1, N-[2,6-Bis(1-methylethyl)phenyl]-2-dodecyl-2H-tetrazole-5-acetamide] — 40-fold lower, 3 nM
- CCCCCCCCCCCCn1nnc(CC(=O)Nc2c(C)nn(C)c2C)n1 [Example 11, 2-dodecyl-N-(1,3,5-trimethyl-1H-pyrazol-4-yl)-2H-tetrazole-5-acetamide] — 7.1-fold lower, 17 nM
- CCCCCCCCCCCCn1nnc(C(C(=O)Nc2c(OC)cc(OC)cc2OC)c2ccc3ccccc3c2)n1 (racemic) [Example 53, (±)-2-Dodecyl-α-2-naphthalenyl-N-(2,4,6-trimethoxyphenyl)-2H-tetrazole-5-acetamide] — within 1.5-fold, 97 nM
- CCCCCCCCCCCCn1nnc(CCC(=O)Nc2c(OC)cc(OC)cc2OC)n1 [Example 34, 2-Dodecyl-N-(2,4,6-trimethoxyphenyl)-2H-tetrazole-5-propanamide] — 1.7-fold lower, 69 nM
- CCCCCCCCCCCCn1nnc(C(C(=O)Nc2ccccn2)c2ccccc2)n1 (racemic) [Example 22, (±)-2-dodecyl-α-phenyl-N-2-pyridinyl-2H-tetrazole-5-acetamide] — within 1.5-fold, 91 nM
- CCCCCCCCCCCCn1nnc(C(C(=O)NC2CC2)c2ccccc2)n1 (racemic) [Example 20, (±)-N-cyclopropyl-2-dodecyl-α-phenyl-2H-tetrazole-5-acetamide] — 2.6-fold lower, 47 nM
- CCCCCCCCCCCCn1nnc(CC(=O)Nc2c(OC)cc(OC)cc2OC)n1 [Example 5, 2-dodecyl-N-(2,4,6-trimethoxyphenyl)-2H-tetrazole-5-acetamide] — 12-fold lower, 10 nM
- CCCCCCCCCCCCn1nnc(C(C(=O)Nc2c(OC)cc(OC)cc2OC)c2ccc(F)cc2)n1 (racemic) [Example 52, (±)-2-Dodecyl-α-(4-fluorophenyl)-N-(2,4,6-trimethoxyphenyl)-2H-tetrazole-5-acetamide] — 3.3-fold lower, 36 nM
- CCCCCCCCCCCCn1nnc(C(C(=O)Nc2c(C(C)C)cccc2C(C)C)c2ccccn2)n1 (racemic) [Example 55, (±)-N-[2,6-Bis(1-methylethyl)phenyl]-2-dodecyl-α-2-pyridinyl-2H-tetrazole-5-acetamide] — 4.6-fold lower, 26 nM
- CCCCCCCCCCCCn1nnc(C(C(=O)Nc2c(C(C)C)cccc2C(C)C)(c2ccccc2)c2ccccc2)n1 [Example 46, N-[2,6-Bis(1-methylethyl)phenyl]-2-dodecyl-α,α-diphenyl-2H-tetrazole-5-acetamide] — 92-fold higher, 11000 nM
- CCCCCCCCCCCCn1nnc(C(C(=O)Nc2c(C)ccc[n+]2[O-])c2ccccc2)n1 (racemic) [Example 24, (±)-2-Dodecyl-N-(3-methyl-2-pyridinyl)-2-phenyl-2H-tetrazole-5-acetamide, N-oxide] — 2.9-fold lower, 41 nM
- CCCCCCCCCCCCn1nnnc1C(C(=O)Nc1ccc(F)cc1F)c1ccccc1 (racemic) [Example 25, (±)-N-(2,4-Difluorophenyl)-1-dodecyl-α-phenyl-1H-tetrazole-5-acetamide] — 6.7-fold higher, 800 nM
